From patent US20130331332A1, “COMPOSITION COMPRISING PEROXISOME PROLIFERATOR-ACTIVATED RECEPTOR-GAMMA” (MERZ PHARMA GmbH & Co. KGaA, priority 2011, published 2013)

Key:
Type in all cases: cell-based, human
[1] = system: adipose-derived stem cells; assay: Cell proliferation of adipose-derived stem cells, MTT photometric assay (Example 4); details: 6 days, FIG. 1
Protocol: Cell proliferation was determined by a photometric assay using MTT (3-(4,5-dimethylthiazol-2-yl)-2,5-diphenyltetrazolium bromide). In brief, human adipose-derived stem cells were isolated from 5 different donors according to example 3 and 1.5×10^4 cells were seeded in 96-well-plates. Cell samples were used in quadruplicate in each experiment. The human adipose-derived stem cells were cultured for 6 days in two different media containing PPARγ or control media. Recombinant PPARγ (recPPARγ) (Thermo Scientific-Pierce, PPARgamma human) was solved in dimethyl sulfoxide (DMSO) at a concentration of 270 µg/ml and used as a stock solution. Working solutions were prepared by dilution using a factor of 1:100 for a final concentration of 2.7 μg/ml, a factor of 1:270 for a final concentration of 1 μg/ml, a factor of 1:540 for a final concentration of 0.5 μg/ml, and a factor of 1:2700 for a final concentration of 0.1 μg/ml. […]
After 6 days of culturing, the cells were incubated in PBS containing MTT at 37° C. for 4 hours. Afterwards, the medium was removed, 0.04 N HCl was added, and absorbance was measured in a microplate reader at 550 nm versus 650 nm. […]

[2] = system: adipose-derived stem cells (ASCs); assay: Oil-O-Red staining of fat vacuoles in adipose-derived stem cells (Example 6); details: for adipogenic differentiation / development of fat vacuoles (Oil-O-Red staining): 3 weeks of incubation in NM; for formation of fat vacuoles / adipogenic differentiation (Oil-O-Red staining): PPARγ 2.7, 1, 0.5 or 0.1 μg/ml
Protocol: The induction of adipogenic differentiation by recombinant PPARγ was verified by Oil-O-Red staining of fat vacuoles. Human adipose-derived stem cells (ASCs) from 4 different donors were isolated as described in example 3. The cells were cultured for 2 weeks in “NM”, a standard culture medium of Dulbecco's modified Eagle's medium with a physiologic glucose concentration of 100 mg/dl (DMEM, Sigma, Germany) supplemented with 10% fetal calf serum (FCS; PAA, Germany) and medium was changed every 5-6 days. Cells were cultured in NM containing 2.7 μg/ml, 1 μg/ml, 0.5 μg/ml, or 0.1 μg/ml of PPARγ (Thermo Scientific-Pierce, PPARgamma human), respectively, or 5 μM Pioglitazone (Sigma-Aldrich, Germany), or 5 μM Pioglitazone and 2.7 μg/ml PPARγ, or 5 μM Pioglitazone and 0.1 μg/ml PPARγ. Controls were cultured in NM.
After 2 weeks in culture the formation of lipid droplets which is indicative of the ability to differentiate was verified by Oil-O-Red staining. Oil-O-Red is a fat-soluble dye used for the staining of neutral triglycerides. […] After fixation with 4% paraformaldehyde for 20 minutes, the cells were incubated for a staining time of 1 hour with a 0.5% Oil-O-Red (Sigma) solution in Isopropanol/glycerine. The Oil-O-Red staining was evaluated microscopically.
Further cells were cultured in NM containing 5 μM Pioglitazone (Sigma-Aldrich, Germany), or 5 μM Pioglitazone and 2.7 μg/ml PPARγ, or 5 μM Pioglitazone and 0.1 μg/ml PPARγ.
Further cell samples were cultured in “AM-” composed of DMEM with 4500 mg/l glucose, 10 μM insulin (Novo Nordisk), 1 μM dexamethasone (Ratiopharm), 10% FCS. Cell samples were cultured in AM- containing 2.7 μg/ml, 1 μg/ml, 0.5 μg/ml, or 0.1 μg/ml of PPARγ, respectively, or 5 μM Pioglitazone, or 5 μM Pioglitazone and 2.7 μg/ml PPARγ. Negative control cells were cultured in AM-. Cells incubated with DMEM with 4500mg/l glucose, 10 μM insulin (Novo Nordisk), 1 μM dexamethasone (Ratiopharm), 10% FCS and 1 mM isobutyl-methylxanthin (Sigma) and 200 μM indometacin (Fluka) were used as a positive induction control.
Culturing of cells in NM and in AM- containing the different PPARγ concentrations as given above was repeated with an incubation period of 3 weeks.

[3] = system: adipose-derived stem cells (ASC); assay: Induction of adipocyte differentiation by PPARgamma, oil red O staining (Example 2); details: PPARgamma 0.0001%, 0.01% and 1% by weight in culture media; 5 days incubation, further 9 days in culture; oil red O staining of lipid droplets
Protocol: The ability of peroxisome proliferator-activated receptor-gamma to induce differentiation of adipocytes was studied in adipose-derived stem cells (ASC). Human adipose-derived stem cells were obtained by liposuction and cultured following a published procedure (Crandall et al, Endocrinology 140:154-8, 1999). In brief, adipose tissue was digested with 2 mg/mL collagenase in Krebs-Ringer-bicarbonate buffer (pH 7.4). The preadipocyte fraction was resuspended in growth medium, transferred to a culture flask, and maintained in an incubator at 37° C., and 5% CO2. Cell attachment was allowed for 16-20 h and afterwards the cells that had not adhered were removed.
Peroxisome proliferator-activated receptor-gamma (PPARgamma) was added to respective final concentrations of 0.0001%, 0.01% and 1% by weight to the culture media 24 hours after the cells were seeded. The media was changed every three days and supplemented with fresh peroxisome proliferator-activated receptor-gamma. The cells were incubated with peroxisome proliferator-activated receptor-gamma for 5 days. Afterwards peroxisome proliferator-activated receptor-gamma was removed, and the cells were kept for further 9 days in culture for observation of lipid droplet formation, which is indicative of the ability to differentiate. Controls were run in medium without peroxisome proliferator-activated receptor-gamma. […]

[4] = system: adipose-derived stem cells; assay: Photometric measurement (optical density) of adipogenic differentiation in adipose-derived stem cells (Example 5); details: 2 weeks of culturing, FIG. 2
Protocol: The induction of adipogenic differentiation by recombinant PPARγ was tested in human adipose-derived stem cells from 4 different donors isolated as described in example 3. The cells were cultured for 2 weeks, and media were changed every 5-6 days. Cell samples were seeded with 1.5×10^4 cells in 96-well-plates. Recombinant PPARγ (recPPARγ) (Thermo Scientific-Pierce, PPARgamma human) was solved in dimethyl sulfoxide (DMSO) at a concentration of 270 µg/ml and used as a stock solution. Working solutions were prepared by dilution using a factor of 1:100 for a final concentration of 2.7 μg/ml, a factor of 1:270 for a final concentration of 1 μg/ml, a factor of 1:540 for a final concentration of 0.5 μg/ml, and a factor of 1:2700 for a final concentration of 0.1 μg/ml.
Cells were cultured in two different media, either in “NM”, a standard culture medium of Dulbecco's modified Eagle's medium with a physiologic glucose concentration of 100 mg/dl (DMEM, Sigma, Germany) supplemented with 10% fetal calf serum (FCS; PAA, Germany), or in “AM-” composed of DMEM with 4500 mg/l glucose (high glucose) and 10 μM insulin (Novo Nordisk), 1 μM dexamethasone (Ratiopharm), and 10% FCS. Cell samples were cultured in NM containing 2.7 μg/ml, 1 μg/ml, 0.5 μg/ml, or 0.1 μg/ml of PPARγ, respectively. […] After 2 weeks of culturing, the optical density was measured in a microplate reader. […]

CCc1ccc(CCOc2ccc(CC3SC(=O)NC3=O)cc2)nc1 (racemic) [Pioglitazone, (RS)-5-{p-[2-(5-ethyl-2-pyridyl)ethoxy]benzyl}-2,4-thiazolidinedione, reference compound]
cell proliferation (MTT assay) ([1]; 5 μM Pioglitazone alone, NM standard medium): no effect
adipogenic differentiation / development of fat vacuoles (Oil-O-Red staining) [2]: only slightly induced differentiation

PPARγ: Recombinant PPARγ protein (Thermo Scientific-Pierce, PPARgamma human); nuclear hormone receptor transcription factor
Degree of differentiation [3]: ++ to +++
cell proliferation (MTT assay) ([1]; 2.7, 1, 0.5 or 0.1 μg/ml PPARγ, both media (NM and AM-)): stimulated the proliferation of the adipose-derived stem cells in a dose-dependent manner
cytotoxic effect on cells (cell number by optical density) ([4]; 2.7-0.1 μg/ml PPARγ): no cytotoxic effect
differentiation and proliferation (increase in optical density) ([4]; both media (NM and AM-)): stimulated the differentiation and proliferation
formation of fat vacuoles / adipogenic differentiation (Oil-O-Red staining) ([2]; 2 weeks of culture in AM- medium): able to induce the formation of fat vacuoles
formation of fat vacuoles / adipogenic differentiation (Oil-O-Red staining) ([2]; 2 weeks of culture in NM, Pioglitazone 5 μM, FIG. 3): able to induce the formation of fat vacuoles
formation of fat vacuoles and adipogenic differentiation (Oil-O-Red staining) ([2]; 3 weeks of culture in AM- medium): induced the formation of fat vacuoles and adipogenic differentiation
adipogenic differentiation / development of fat vacuoles (Oil-O-Red staining) [2]: heavily induced adipogenic differentiation
